# Active and inactive are the calls of the source. The rule behind the calls is not given here.
# Columns and labels:
# [1] = biological target: T1, Delta-type opioid receptor (Homo sapiens, UniProt P41143); assay: Inverse agonist activity at human delta opioid receptor expressed in CHO cell membranes by [35S]GTPgammaS binding assay; format: functional
# [2] = biological target: T1, Delta-type opioid receptor; assay: Displacement of [3H]DPDPE from human delta opioid receptor expressed in CHO cells; format: cell-based
# Mu-type opioid receptor = Mu-type opioid receptor (Homo sapiens, UniProt P35372); assay: Displacement of [3H]DAMGO from human mu opioid receptor expressed in CHO cells; format: cell-based
# Homo sapiens [3] = species: Homo sapiens; assay: Selectivity ratio for Ki for displacement of [3H]DAMGO from human mu opioid receptor expressed in CHO cells to Ki for displacement of [3H]DPDPE from human DOR expressed in CHO cells; format: cell-based
# [4] = biological target: T1, Delta-type opioid receptor; assay: Agonist activity at human delta opioid receptor expressed in CHO cell membranes by [35S]GTPgammaS binding assay; format: functional
# [5] = biological target: T1, Delta-type opioid receptor; assay: Agonist activity at human delta opioid receptor expressed in CHO cell membranes by [35S]GTPgammaS binding assay relative to control; format: functional
# [6] = biological target: Kappa-type opioid receptor (Homo sapiens, UniProt P41145); assay: Displacement of [3H]U69593 from human kappa opioid receptor expressed in CHO cells; format: cell-based
# Homo sapiens [7] = species: Homo sapiens; assay: Selectivity ratio for Ki for displacement of [3H]U69593 from human kappa opioid receptor expressed in CHO cells to Ki for displacement of [3H]DPDPE from human DOR expressed in CHO cells; format: cell-based
# Mus musculus [8] = assay: Antidepressant activity in sc dosed mouse assessed as decrease in total immobility count by forced swim test; format: functional, organism-based
# Mus musculus [9] = assay: Antidepressant activity in sc dosed mouse assessed as increase in total swimming count by forced swim test; format: functional, organism-based
# Mus musculus [10] = assay: Antidepressant activity in sc dosed mouse assessed as increase in climbing count by forced swim test; format: functional, organism-based
# Mus musculus [11] = assay: Antidepressant activity in mouse at 3 mg/kg, sc by forced swim test; format: functional, organism-based
# Mus musculus [12] = assay: Antidepressant activity in mouse at 10 mg/kg, sc by forced swim tes; format: functional, organism-based
# Chain of Mu-type opioid receptor (P35372 whole entry): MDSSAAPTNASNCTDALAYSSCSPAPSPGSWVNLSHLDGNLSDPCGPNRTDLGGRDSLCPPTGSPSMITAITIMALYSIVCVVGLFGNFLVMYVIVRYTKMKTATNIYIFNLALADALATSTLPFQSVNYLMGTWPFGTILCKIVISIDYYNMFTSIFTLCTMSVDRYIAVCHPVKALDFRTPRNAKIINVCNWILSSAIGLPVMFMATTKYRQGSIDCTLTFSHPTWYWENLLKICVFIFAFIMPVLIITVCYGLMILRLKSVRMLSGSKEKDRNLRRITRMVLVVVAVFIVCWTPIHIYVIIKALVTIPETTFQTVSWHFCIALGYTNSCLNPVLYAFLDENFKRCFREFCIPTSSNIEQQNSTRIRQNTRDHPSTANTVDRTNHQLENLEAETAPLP
# T1 sequence (P41143 whole entry): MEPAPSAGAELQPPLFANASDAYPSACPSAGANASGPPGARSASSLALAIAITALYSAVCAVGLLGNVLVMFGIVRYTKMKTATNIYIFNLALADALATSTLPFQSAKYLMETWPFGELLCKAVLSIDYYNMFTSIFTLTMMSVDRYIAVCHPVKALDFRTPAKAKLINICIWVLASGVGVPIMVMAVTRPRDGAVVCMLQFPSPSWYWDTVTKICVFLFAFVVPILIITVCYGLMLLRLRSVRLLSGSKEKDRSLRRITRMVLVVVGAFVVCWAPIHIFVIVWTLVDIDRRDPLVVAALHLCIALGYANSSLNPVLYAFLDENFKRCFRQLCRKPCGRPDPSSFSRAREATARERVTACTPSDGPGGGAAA
# Chain of Kappa-type opioid receptor (P41145 whole entry): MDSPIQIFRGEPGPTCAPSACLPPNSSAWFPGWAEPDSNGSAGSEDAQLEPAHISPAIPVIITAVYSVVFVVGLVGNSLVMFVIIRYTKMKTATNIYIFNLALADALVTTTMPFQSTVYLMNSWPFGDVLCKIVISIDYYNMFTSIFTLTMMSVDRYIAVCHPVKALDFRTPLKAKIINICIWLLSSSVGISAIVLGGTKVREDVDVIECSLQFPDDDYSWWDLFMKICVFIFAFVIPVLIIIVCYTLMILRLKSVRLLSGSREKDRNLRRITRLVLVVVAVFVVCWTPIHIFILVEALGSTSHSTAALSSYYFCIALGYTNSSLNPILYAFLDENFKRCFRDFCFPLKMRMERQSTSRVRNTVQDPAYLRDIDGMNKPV
Compound,EC50 [1] [nM],Ki [2] [nM],Ki (Mu-type opioid receptor) [nM],Ratio Ki (Homo sapiens [3]),EC50 [4] [nM],Emax [5] [%],Ki [6] [nM],Ratio Ki (Homo sapiens [7]),Activity (Mus musculus [8]),Activity (Mus musculus [9]),Activity (Mus musculus [10]),Activity (Mus musculus [11]),Activity (Mus musculus [12])
COC1=CC=C2C[C@H]3N(C(=O)C4CC4)CC[C@]45C2C1O[C@H]4c1[nH]c2ccccc2c1C[C@@]35O (stereo partly specified),322,,,,,,,,,,,,
O=C(CCc1ccccc1)N1CC[C@]23Cc4nc5ccccc5cc4C[C@@]2(O)[C@H]1Cc1ccc(O)cc13,,4.17,1790,430,10.4,123,,,,,,,
O=C(Cc1ccccc1)N1CC[C@]23c4c5ccc(O)c4O[C@H]2c2[nH]c4ccccc4c2C[C@@]3(O)[C@H]1C5,,41.5,8670,209,132,97.5,5990,144,,,,,
O=C(Cc1ccccc1)N1CC[C@]23Cc4nc5ccccc5cc4C[C@@]2(O)[C@H]1Cc1ccc(O)cc13,,26,,,14.4,125,,,Dose-dependent effect,Dose-dependent effect,Dose-dependent effect,Active,
O=C(CCc1ccccc1)N1CC[C@]23c4c5ccc(O)c4O[C@H]2c2[nH]c4ccccc4c2C[C@@]3(O)[C@H]1C5,,89,3480,39.2,127,88.5,2150,24.2,,,,,
CN1CC[C@]23Cc4nc5ccccc5cc4C[C@@]2(O)[C@H]1Cc1ccc(O)cc13,,,,,,,,,Dose-dependent effect,Dose-dependent effect,Dose-dependent effect,,Active

# Reference: ChEMBL document CHEMBL4627370, “Discovery of δ opioid receptor full agonists lacking a basic nitrogen atom and their antidepressant-like effects” (Bioorg Med Chem Lett, 2020)
